Reference: the CheMixHub viscosity set

Experiment: xn = mol fraction of the nth substance listed

CCCCCCCCCCCCCCCC + CCCCCC
Conditions | viscosity [mPa·s]
298.09 K, 100 kPa, x1 = 0.8 | 2.236
298.12 K, 100 kPa, x1 = 0.4 | 0.991
298.15 K, 100 kPa, x1 = 0.6 | 1.518
298.15 K, 101 kPa, x1 = 0.1995 | 0.6062
298.15 K, 101 kPa, x1 = 0.3978 | 1.017
298.15 K, 101 kPa, x1 = 0.5746 | 1.453
298.15 K, 101 kPa, x1 = 0.8011 | 2.209
298.15 K, 101.33 kPa, x2 = 0.1046 | 2.659
298.15 K, 101.33 kPa, x2 = 0.1966 | 2.25
298.15 K, 101.33 kPa, x2 = 0.3 | 1.88
298.15 K, 101.33 kPa, x2 = 0.4037 | 1.547
298.15 K, 101.33 kPa, x2 = 0.5142 | 1.214
298.15 K, 101.33 kPa, x2 = 0.6072 | 0.987
298.15 K, 101.33 kPa, x2 = 0.7062 | 0.7626
298.15 K, 101.33 kPa, x2 = 0.8048 | 0.58
298.15 K, 101.33 kPa, x2 = 0.9026 | 0.4277
298.19 K, 101 kPa, x2 = 0.1987 | 2.235
298.19 K, 101 kPa, x2 = 0.3772 | 1.607
298.19 K, 101 kPa, x2 = 0.5983 | 1.001
298.19 K, 101 kPa, x2 = 0.7982 | 0.5933
298.22 K, 100 kPa, x1 = 0.2 | 0.584
318.26 K, 101 kPa, x2 = 0.1976 | 1.534
318.26 K, 101 kPa, x2 = 0.3758 | 1.155
318.26 K, 101 kPa, x2 = 0.5971 | 0.7591
318.26 K, 101 kPa, x2 = 0.7975 | 0.4712
323.13 K, 100 kPa, x1 = 0.6 | 1.028

ClC(Cl)Cl + CCCCCC
viscosity [mPa·s], 101 kPa
Conditions | x2 = 0.098 | x2 = 0.202 | x2 = 0.2873 | x2 = 0.4056 | x2 = 0.5009 | x2 = 0.5885 | x2 = 0.7253 | x2 = 0.8116 | x2 = 0.9008
293.15 K | 0.5269 | 0.4839 | 0.4558 | 0.42 | 0.3965 | 0.3762 | 0.3509 | 0.3368 | 0.3242
298.15 K | 0.5028 | 0.4606 | 0.434 | 0.3996 | 0.3781 | 0.3582 | 0.3341 | 0.3206 | 0.309
303.15 K | 0.4779 | 0.4396 | 0.4142 | 0.3811 | 0.3628 | 0.3413 | 0.3186 | 0.3056 | 0.2945
313.15 K | 0.4362 | 0.3998 | 0.3783 | 0.3472 | 0.3308 | 0.311 | 0.2912 | 0.2786 | 0.2683

CCCCCCCCCCCCCCCC + CCCCCCC
Conditions | viscosity [mPa·s]
293.17 K, 101 kPa, x1 = 0.097 | 0.553
293.17 K, 101 kPa, x1 = 0.195 | 0.73
293.17 K, 101 kPa, x1 = 0.492 | 1.475
293.17 K, 101 kPa, x1 = 0.785 | 2.597
298 K, 101 kPa, x2 = 0.5 | 1.377
298.15 K, 101 kPa, x1 = 0.211 | 0.7064
298.15 K, 101 kPa, x1 = 0.4067 | 1.102
298.15 K, 101 kPa, x1 = 0.5795 | 1.552
298.15 K, 101 kPa, x1 = 0.7867 | 2.202
298.15 K, 101.33 kPa, x2 = 0.1067 | 2.618
298.15 K, 101.33 kPa, x2 = 0.1981 | 2.268
298.15 K, 101.33 kPa, x2 = 0.3001 | 1.922
298.15 K, 101.33 kPa, x2 = 0.4055 | 1.603
298.15 K, 101.33 kPa, x2 = 0.5077 | 1.307
298.15 K, 101.33 kPa, x2 = 0.607 | 1.08
298.15 K, 101.33 kPa, x2 = 0.7086 | 0.8554
298.15 K, 101.33 kPa, x2 = 0.8028 | 0.68
298.15 K, 101.33 kPa, x2 = 0.9019 | 0.5217
303.15 K, 101 kPa, x1 = 0.097 | 0.485
303.15 K, 101 kPa, x1 = 0.195 | 0.632
303.15 K, 101 kPa, x1 = 0.492 | 1.233
303.15 K, 101 kPa, x1 = 0.785 | 2.079
318 K, 101 kPa, x2 = 0.5 | 1.005

CCCCCCCCCCCCCCCC + CCCCCCCC
Conditions | viscosity [mPa·s]
298.15 K, 101.33 kPa, x2 = 0.1039 | 2.656
298.15 K, 101.33 kPa, x2 = 0.2122 | 2.305
298.15 K, 101.33 kPa, x2 = 0.3109 | 1.973
298.15 K, 101.33 kPa, x2 = 0.4114 | 1.682
298.15 K, 101.33 kPa, x2 = 0.5033 | 1.452
298.15 K, 101.33 kPa, x2 = 0.6068 | 1.205
298.15 K, 101.33 kPa, x2 = 0.7096 | 0.982
298.15 K, 101.33 kPa, x2 = 0.8067 | 0.7957
298.15 K, 101.33 kPa, x2 = 0.9049 | 0.6421
318.16 K, 101 kPa, x1 = 0.15 | 0.5758
318.16 K, 101 kPa, x1 = 0.3499 | 0.8378
318.16 K, 101 kPa, x1 = 0.5001 | 1.073
318.16 K, 101 kPa, x1 = 0.6398 | 1.317
318.16 K, 101 kPa, x1 = 0.7996 | 1.627

CCCCCCCCCCCCCCCC + CCCCCCCCCC
Conditions | viscosity [mPa·s]
298.15 K, 101.33 kPa, x2 = 0.1051 | 2.749
298.15 K, 101.33 kPa, x2 = 0.2075 | 2.481
298.15 K, 101.33 kPa, x2 = 0.3045 | 2.2
298.15 K, 101.33 kPa, x2 = 0.4045 | 1.976
298.15 K, 101.33 kPa, x2 = 0.5081 | 1.733
298.15 K, 101.33 kPa, x2 = 0.6095 | 1.53
298.15 K, 101.33 kPa, x2 = 0.7051 | 1.336
298.15 K, 101.33 kPa, x2 = 0.8037 | 1.17
298.15 K, 101.33 kPa, x2 = 0.9041 | 0.9885
313.15 K, 100 kPa, x2 = 0.35 | 1.6
313.15 K, 100 kPa, x2 = 0.61 | 1.18
313.15 K, 100 kPa, x2 = 0.83 | 0.9

CCCCCCCCCC(=O)OC + CCCCCCCCCCC
viscosity [mPa·s], 100 kPa
Conditions | x2 = 0.0986 | x2 = 0.1998 | x2 = 0.2992 | x2 = 0.3988 | x2 = 0.4974 | x2 = 0.5994 | x2 = 0.6999 | x2 = 0.7993 | x2 = 0.899
293.15 K | 1.97 | 1.831 | 1.717 | 1.611 | 1.516 | 1.425 | 1.342 | 1.272 | 1.219
298.15 K | 1.783 | 1.662 | 1.559 | 1.468 | 1.386 | 1.306 | 1.234 | 1.169 | 1.124
303.15 K | 1.625 | 1.517 | 1.427 | 1.344 | 1.268 | 1.198 | 1.137 | 1.08 | 1.039
308.15 K | 1.487 | 1.392 | 1.311 | 1.237 | 1.171 | 1.109 | 1.053 | 1.002 | 0.964
313.15 K | 1.368 | 1.283 | 1.211 | 1.145 | 1.083 | 1.029 | 0.978 | 0.932 | 0.897
318.15 K | 1.264 | 1.187 | 1.122 | 1.062 | 1.007 | 0.958 | 0.912 | 0.871 | 0.838
323.15 K | 1.172 | 1.102 | 1.044 | 0.99 | 0.939 | 0.894 | 0.853 | 0.815 | 0.786

CCCCCCCCCCCCCCCC + CCCCCCCCCCCC
298.15 K, 101.33 kPa
Conditions | viscosity [mPa·s]
x2 = 0.1077 | 2.821
x2 = 0.2113 | 2.643
x2 = 0.3061 | 2.467
x2 = 0.4097 | 2.281
x2 = 0.5073 | 2.102
x2 = 0.6082 | 1.936
x2 = 0.7053 | 1.767
x2 = 0.8045 | 1.636
x2 = 0.905 | 1.476

ClC(Cl)Cl + CCCCCCCCCCO
viscosity [mPa·s], 101 kPa
Conditions | 303.15 K | 313.15 K
x1 = 0.0523 | 8.774 | 6.174
x1 = 0.1025 | 7.938 | 5.59
x1 = 0.1519 | 7.108 | 5.068
x1 = 0.1992 | 6.311 | 4.603
x1 = 0.2501 | 5.65 | 4.121
x1 = 0.2992 | 5.021 | 3.726
x1 = 0.3497 | 4.374 | 3.291
x1 = 0.4005 | 3.838 | 2.935
x1 = 0.451 | 3.293 | 2.571
x1 = 0.5 | 2.873 | 2.259
x1 = 0.5504 | 2.439 | 1.974
x1 = 0.5991 | 2.098 | 1.697
x1 = 0.6496 | 1.778 | 1.48
x1 = 0.699 | 1.501 | 1.251
x1 = 0.7508 | 1.277 | 1.076
x1 = 0.799 | 1.052 | 0.911
x1 = 0.8513 | 0.916 | 0.77
x1 = 0.8999 | 0.784 | 0.661
x1 = 0.9501 | 0.651 | 0.561
